The text below walks through data of patent EP0209707A2, “2-Aryl imidazoles, pharmaceutical compositions containing them and process for their preparation” (Dr. Karl Thomae GmbH, priority 1985, dated 1987).

The subject of test [1] is Thrombozytenaggregation in plättchenreichem Plasma gesunder Versuchspersonen. Kind of test: Collagen-induced platelet aggregation (Born and Cross) in platelet-rich plasma. In kind it is cell-based. Particulars: 10 min, 50% change of optical density, plasma incubated 10 min with substance at 37°C. An excerpt:
Die Thrombozytenaggregation wird nach der Methode von BORN und CROSS (J. Physiol. 170, 397 (1964)) in plättchenreichem Plasma gesunder Versuchspersonen gemessen. Zur Gerinnungshemmung wird das Blut mit Natriumcitrat 3,14 % im Volumenverhältnis 1:10 versetzt.
Der Verlauf der Abnahme der optischen Dichte der Plättchensuspension wird nach Zugabe der aggregationsauslösenden Substanz photometrisch gemessen und registriert. Aus dem Neigungswinkel der Dichtekurve wird auf die Aggregationsgeschwindigkeit geschlossen. Der Punkt der Kurve, bei dem die größte Lichtdurchlässigkeit vorliegt, dient zur Berechnung der "optical density".
Die Collagen-Menge wird möglichst gering gewählt, aber doch so, daß sich eine irreversibel verlaufende Reaktionskurve ergibt. Verwendet wird das handelsübliche Collagen der Firma Hormonchemie, München.
Vor der Collagen-Zugabe wird das Plasma jeweils 10 Minuten mit der Substanz bei 37°C inkubiert.
Aus den erhaltenen Meßzahlen wird graphisch eine EC50 berechnet, die sich auf eine 50%ige Änderung der "optical density" im Sinne einer Aggregationshemmung bezieht.

The test system of test [2] is narkotisierten Katze. Kind of test: Blood pressure effect and positive inotropic effect in the anaesthetised cat. The test is classed as in vivo. Conditions: arterial pressure in Aorta abdominalis. As to the method: 1. Bestimmung der Blutdruckwirkung und der positiv inotropen Wirkung an der narkotisierten Katze
Die Untersuchungen wurden an Katzen durchgeführte die mit Pentobarbital-Natrium (40 mg/kg i.p.) narkotisiert waren. Die Tiere atmeten spontan. Der arterielle Blutdruck wurde in der Aorta abdominalis mit einem Statham-Druckwandler (P 23 Dc) gemessen. Für die Erfassung der positiv inotropen Wirkung wurde mit einem Kathetertipmanometer (Millar PC-350 A) der Druck in der linken Herzkammer gemessen. Daraus wurde der Kontraktilitätsparameter dp/dtmax mittels eines Analogdifferenzierers gewonnen. Die zu untersuchenden Substanzen wurden in eine Vena femoralis injiziert. Als Lösungsmittel diente Polydiol 200. Jede Substanz wurde an mindestens 2 Katzen geprüft.
Die nachfolgende Tabelle enthält die gefundenen Mittelwerte: […]

Where [3] appears, read: second value of the printed pair (presumably diastolic), 1 mg/kg i.v.

`COc1cc(S(C)(=O)=NC(C)=O)ccc1-c1nc2cc(C#N)ccc2[nH]1` (centres unmarked) [A, 2-[2'-Methoxy-4'-(N-acetyl-methylsulfoximino-phenyl)]-5-cyano-benzimidazol]: a half-maximal effect in test [1] (EC50) was put at 5.3 µM. For the same compound, the “Blutdruck senkung in mm Hg” value in test [2] (setting [3]) is -20 mm Hg.
Taken in the same sequence, the figures for `COc1cc([S+](C)[O-])ccc1-c1nc2ccc(C(C)=O)cc2[nH]1` (centres unmarked) [B, 2-(2'-Methoxy-4'-methylsulfinyl-phenyl)-5-acetyl-benzimidazol] were 8.2 µM and -28 mm Hg.
With `COc1cc(S(C)(=O)=O)ccc1-c1nc2ccc(C(C)=O)cc2[nH]1` [C, 2-(2'-Methoxy-4'-methylsulfonyl-phenyl)-5-acetyl-benzimidazol], in test [1], the EC50 (in general, the concentration giving half of the maximal effect) was 8 µM. Further, the “Blutdruck senkung in mm Hg” value in test [2] (setting [3]) is recorded as -24 mm Hg.
`COc1cc(NS(C)(=O)=O)ccc1-c1nc2ccc(C#N)cc2[nH]1` [D, 5-Cyano-2-(4'-methansulfonylamino-2'-methoxy-phenyl)-benzimidazol]: the “Blutdruck senkung in mm Hg” value in test [2] (second value of the printed pair (presumably diastolic), 0,6 mg/kg i.v.) is -27 mm Hg.
As for `COC(=O)Nc1ccc(-c2nc3cnccc3[nH]2)c(OC)c1` [E, 2-(2'-Methoxy-4'-methoxycarbonylamino-phenyl)-imidazo-[4,5-c]pyridin], in test [2] (second value of the printed pair (presumably diastolic), 2 mg/kg i.v.), the “Blutdruck senkung in mm Hg” value is given as -12 mm Hg.
